Patent US20260256792A1, “TREATMENT OF CHRONIC SPONTANEOUS URTICARIA BY ADMINISTERING (R)-2-[3-[4-AMINO-3-(2-FLUORO-4-PHENOXY-PHENYL)PYRAZOLO[3,4-D]PYRIMIDIN-1-YL]PIPERIDINE-1-CARBONYL]-4-METHYL-4-[4-(OXETAN-3-YL)PIPERAZIN-1-YL]PENT-2-ENENITRILE” (priority 2023, published 2026)

Tested on: angioedema in CSU patients
Assay: Phase 2 CSU study: angioedema activity score over 7 days (AAS7)
Format: in vivo, human
Design: AAS7, Median / AAS7 Change from baseline, Median: scale not given here
From the text: The study comprises a 12 week, randomized, double-blind, placebo-controlled, multi-center, dose-ranging efficacy and safety phase, followed by a 40 week open label extension (OLE) phase (see FIG. 1). The study consists of three phases and an optional OLE phase. […] The weekly angioedema activity score (AAS7) was proposed as a tertiary endpoint. […] Patients were to complete the AAS using the e-diary. The e-diary was to be used once daily on the same time of each day recording of participant's answers to the angioedema activity score over 7 days (AAS7) questionnaire.

[1] = Patients with Prior Omalizumab Use, 400 mg TID, Week 1
[2] = Patients with Prior Omalizumab Use, 400 mg TID, Week 2
[3] = Patients with Prior Omalizumab Use, 400 mg TID, Week 3
[4] = Patients with Prior Omalizumab Use, 400 mg TID, Week 4
[5] = Patients with Prior Omalizumab Use, 400 mg TID, Week 5
[6] = Patients with Prior Omalizumab Use, 400 mg TID, Week 6
[7] = Patients with Prior Omalizumab Use, 400 mg TID, Week 7
[8] = Patients with Prior Omalizumab Use, 400 mg TID, Week 8
[9] = Week 8, 400 mg BID, Incomplete Responders with angioedema at baseline, double-blind period
[10] = Week 8, 400 mg QPM, Incomplete Responders with angioedema at baseline, double-blind period
[11] = Week 8, 400 mg TID, Incomplete Responders with angioedema at baseline, double-blind period
[12] = Week 9, 400 mg BID, Incomplete Responders with angioedema at baseline, double-blind period
[13] = Week 9, 400 mg QPM, Incomplete Responders with angioedema at baseline, double-blind period
[14] = Week 9, 400 mg TID, Incomplete Responders with angioedema at baseline, double-blind period
[15] = Week 10, 400 mg BID, Incomplete Responders with angioedema at baseline, double-blind period
[16] = Week 10, 400 mg QPM, Incomplete Responders with angioedema at baseline, double-blind period
[17] = Week 10, 400 mg TID, Incomplete Responders with angioedema at baseline, double-blind period
[18] = Week 11, 400 mg BID, Incomplete Responders with angioedema at baseline, double-blind period
[19] = Week 11, 400 mg QPM, Incomplete Responders with angioedema at baseline, double-blind period
[20] = Week 11, 400 mg TID, Incomplete Responders with angioedema at baseline, double-blind period
[21] = Week 12, 400 mg BID, Incomplete Responders with angioedema at baseline, double-blind period
[22] = Week 12, 400 mg QPM, Incomplete Responders with angioedema at baseline, double-blind period
[23] = Week 12, 400 mg TID, Incomplete Responders with angioedema at baseline, double-blind period

## CC(C)(C=C(C#N)C(=O)N1CCC[C@@H](n2nc(-c3ccc(Oc4ccccc4)cc3F)c3c(N)ncnc32)C1)N1CCN(C2COC2)CC1 [rilzabrutinib, (R)-2-[3-[4-amino-3-(2-fluoro-4-phenoxy-phenyl)pyrazolo[3,4-d]pyrimidin-1-yl]piperidine-1-carbonyl]-4-methyl-4-[4-(oxetan-3-yl)piperazin-1-yl]pent-2-enenitrile]
Patients with Prior Omalizumab Use, 400 mg QPM, Week 8
  AAS7 Change from baseline, Median: −50.00
[1]
  AAS7, Mean (SD): 6.33 (7.77)
  AAS7, Median: 4.00
  AAS7 Change from baseline, Median: −25.83
  AAS7 Percent change from baseline, Mean (SD): −79.91 (18.61) %
  AAS7 Percent change from baseline, Median: −76.47%
[2]
  AAS7, Mean (SD): 4.00 (6.93)
  AAS7, Median: 0.00
  AAS7 Change from baseline, Mean (SD): −27.28 (19.44)
  AAS7 Change from baseline, Median: −36.00
  AAS7 Percent change from baseline, Mean (SD): −76.47 (40.75) %
  AAS7 Percent change from baseline, Median: −100.00%
[3]
  AAS7, Mean (SD): 7.00 (7.00)
  AAS7, Median: 7.00
  AAS7 Change from baseline, Mean (SD): −24.28 (18.46)
  AAS7 Change from baseline, Median: −33.83
  AAS7 Percent change from baseline, Mean (SD): −66.83 (43.45) %
  AAS7 Percent change from baseline, Median: −82.86%
[4]
  AAS7, Mean (SD): 7.11 (6.30)
  AAS7, Median: 9.33
  AAS7 Change from baseline, Mean (SD): −24.17 (16.75)
  AAS7 Change from baseline, Median: −31.50
  AAS7 Percent change from baseline, Mean (SD): −68.85 (36.02) %
  AAS7 Percent change from baseline, Median: −77.14%
[5]
  AAS7, Median: 19.83
  AAS7 Change from baseline, Mean (SD): −18.00 (19.67)
  AAS7 Change from baseline, Median: −21.00
  AAS7 Percent change from baseline, Mean (SD): −44.59 (59.12) %
  AAS7 Percent change from baseline, Median: −51.43%
[6]
  AAS7, Mean (SD): 7.00 (8.19)
  AAS7, Median: 5.00
  AAS7 Change from baseline, Mean (SD): −24.28 (20.16)
  AAS7 Change from baseline, Median: −35.83
  AAS7 Percent change from baseline, Mean (SD): −64.55 (51.17) %
  AAS7 Percent change from baseline, Median: −87.76%
[7]
  AAS7, Mean (SD): 9.72 (16.84)
  AAS7, Median: 0.00
  AAS7 Change from baseline, Mean (SD): −21.56 (12.79)
  AAS7 Change from baseline, Median: −17.00
  AAS7 Percent change from baseline, Mean (SD): −76.19 (41.24) %
  AAS7 Percent change from baseline, Median: −100.00%
[8]
  AAS7, Mean (SD): 4.67 (7.23)
  AAS7, Median: 1.00
  AAS7 Change from baseline, Mean (SD): −26.61 (19.68)
  AAS7 Change from baseline, Median: −36.00
[9]
  AAS7 Percent change from baseline, Mean (SD): −100.00 (0.00)
  AAS7 Percent change from baseline, Median: −100.00
[10]
  AAS7 Percent change from baseline, Mean (SD): −73.53 (NC)
  AAS7 Percent change from baseline, Median: −73.53
[11]
  AAS7 Percent change from baseline, Mean (SD): −73.69 (43.46)
  AAS7 Percent change from baseline, Median: −97.55
[12]
  AAS7, Mean (SD): 0.00 (0.00)
  AAS7, Median: 0.00
  AAS7 Change from baseline, Mean (SD): −39.50 (3.54)
  AAS7 Change from baseline, Median: −39.50
  AAS7 Percent change from baseline, Mean (SD): −100.00 (0.00)
  AAS7 Percent change from baseline, Median: −100.00
[13]
  AAS7, Mean (SD): 10.00 (NC)
  AAS7 Change from baseline, Mean (SD): −58.00 (NC)
  AAS7 Change from baseline, Median: −58.00
  AAS7 Percent change from baseline, Mean (SD): −85.29 (NC)
  AAS7 Percent change from baseline, Median: −85.29
[14]
  AAS7, Mean (SD): 4.39 (6.62)
  AAS7, Median: 1.17
  AAS7 Change from baseline, Mean (SD): −26.89 (19.04)
  AAS7 Change from baseline, Median: −36.00
  AAS7 Percent change from baseline, Mean (SD): −75.52 (39.95)
  AAS7 Percent change from baseline, Median: −97.14
[15]
  AAS7, Mean (SD): 0.00 (0.00)
  AAS7, Median: 0.00
  AAS7 Change from baseline, Mean (SD): −39.50 (3.54)
  AAS7 Change from baseline, Median: −39.50
  AAS7 Percent change from baseline, Mean (SD): −100.00 (0.00)
  AAS7 Percent change from baseline, Median: −100.00
[16]
  AAS7, Mean (SD): 0.00 (NC)
  AAS7, Median: 0.00
  AAS7 Change from baseline, Mean (SD): −68.00 (NC)
  AAS7 Change from baseline, Median: −68.00
  AAS7 Percent change from baseline, Mean (SD): −100.00 (NC)
  AAS7 Percent change from baseline, Median: −100.00
[17]
  AAS7, Mean (SD): 9.00 (10.15)
  AAS7, Median: 7.00
  AAS7 Change from baseline, Mean (SD): −22.28 (21.92)
  AAS7 Change from baseline, Median: −33.83
  AAS7 Percent change from baseline, Mean (SD): −55.07 (63.56)
  AAS7 Percent change from baseline, Median: −82.86
[18]
  AAS7, Mean (SD): 0.00 (0.00)
  AAS7, Median: 0.00
  AAS7 Change from baseline, Mean (SD): −39.50 (3.54)
  AAS7 Change from baseline, Median: −39.50
  AAS7 Percent change from baseline, Mean (SD): −100.00 (0.00)
  AAS7 Percent change from baseline, Median: −100.00
[19]
  AAS7, Mean (SD): 0.00 (NC)
  AAS7, Median: 0.00
  AAS7 Change from baseline, Mean (SD): −68.00 (NC)
  AAS7 Change from baseline, Median: −68.00
  AAS7 Percent change from baseline, Mean (SD): −100.00 (NC)
  AAS7 Percent change from baseline, Median: −100.00
[20]
  AAS7, Median: 0.00
  AAS7 Change from baseline, Mean (SD): −24.61 (24.03)
  AAS7 Change from baseline, Median: −36.00
  AAS7 Percent change from baseline, Mean (SD): −60.78 (67.92)
  AAS7 Percent change from baseline, Median: −100.00
[21]
  AAS7, Mean (SD): 0.00 (0.00)
  AAS7, Median: 0.00
  AAS7 Change from baseline, Mean (SD): −39.50 (3.54)
  AAS7 Change from baseline, Median: −39.50
  AAS7 Percent change from baseline, Mean (SD): −100.00 (0.00)
  AAS7 Percent change from baseline, Median: −100.00
[22]
  AAS7, Mean (SD): 5.00 (NC)
  AAS7, Median: 5.00
  AAS7 Change from baseline, Mean (SD): −63.00 (NC)
  AAS7 Change from baseline, Median: −63.00
  AAS7 Percent change from baseline, Mean (SD): −92.65 (NC)
  AAS7 Percent change from baseline, Median: −92.65
[23]
  AAS7 Change from baseline, Mean (SD): −16.50 (27.58)
  AAS7 Change from baseline, Median: −16.50
  AAS7 Percent change from baseline, Mean (SD): −41.18 (83.19)
  AAS7 Percent change from baseline, Median: −41.18
